For 1 compound, IC50 and inhibition results are on record in the kinase profiling compilation of Christmann-Franck et al. (2016).

One assay deals with ATR (human) (UniProt Q13535). The assay is described as follows: Alphascreen. Background: In Alpha technology, singlet oxygen from a donor bead excites a nearby acceptor bead.
In a further assay the target is CDK5 CDK5R1 p35 (human) (UniProt Q00535+Q15078). Briefly: SelectScreen, TR FRET. The note with it: compound 5.0 µM. Background: In TR-FRET formats the signal depends on donor and acceptor labels being close together.
In another assay the target is EGFR (human) (UniProt P00533). Briefly: SelectScreen, TR FRET. Particulars: compound 5.0 µM.
A further assay concerns the target RPS6KA1 KD1 KD2 (human) (UniProt Q15418). The assay is described as follows: SelectScreen, TR FRET. Particulars: compound 5.0 µM.
In the next assay the target is GSK3B (human) (UniProt P49841). The assay is described as follows: SelectScreen, TR FRET. The note with it: compound 5.0 µM.
In the next assay the target is NTRK2 (human) (UniProt Q16620). Briefly: SelectScreen, TR FRET. Particulars: compound 5.0 µM.
A further assay concerns the target STK3 (human) (UniProt Q13188). Briefly: SelectScreen, TR FRET. Particulars: compound 5.0 µM.
The target in the next assay is TSSK1B (human) (UniProt Q9BXA7). The assay is described as follows: SelectScreen, TR FRET. The note with it: compound 5.0 µM.
The target of another assay is INSRR (human) (UniProt P14616). The assay is described as follows: SelectScreen, TR FRET. The note with it: compound 5.0 µM.
The target in a further assay is PHKG1 (human) (UniProt Q16816). Briefly: SelectScreen, TR FRET. The note with it: compound 5.0 µM.
In another assay the target is GRK4 (human) (UniProt P32298). Briefly: SelectScreen, TR FRET. The note with it: compound 5.0 µM.
For another assay, the target named is ROS1 (human) (UniProt P08922). The assay is described as follows: SelectScreen, TR FRET. Particulars: compound 5.0 µM.

Chain of ATR (human) (Q13535 whole entry, looked up): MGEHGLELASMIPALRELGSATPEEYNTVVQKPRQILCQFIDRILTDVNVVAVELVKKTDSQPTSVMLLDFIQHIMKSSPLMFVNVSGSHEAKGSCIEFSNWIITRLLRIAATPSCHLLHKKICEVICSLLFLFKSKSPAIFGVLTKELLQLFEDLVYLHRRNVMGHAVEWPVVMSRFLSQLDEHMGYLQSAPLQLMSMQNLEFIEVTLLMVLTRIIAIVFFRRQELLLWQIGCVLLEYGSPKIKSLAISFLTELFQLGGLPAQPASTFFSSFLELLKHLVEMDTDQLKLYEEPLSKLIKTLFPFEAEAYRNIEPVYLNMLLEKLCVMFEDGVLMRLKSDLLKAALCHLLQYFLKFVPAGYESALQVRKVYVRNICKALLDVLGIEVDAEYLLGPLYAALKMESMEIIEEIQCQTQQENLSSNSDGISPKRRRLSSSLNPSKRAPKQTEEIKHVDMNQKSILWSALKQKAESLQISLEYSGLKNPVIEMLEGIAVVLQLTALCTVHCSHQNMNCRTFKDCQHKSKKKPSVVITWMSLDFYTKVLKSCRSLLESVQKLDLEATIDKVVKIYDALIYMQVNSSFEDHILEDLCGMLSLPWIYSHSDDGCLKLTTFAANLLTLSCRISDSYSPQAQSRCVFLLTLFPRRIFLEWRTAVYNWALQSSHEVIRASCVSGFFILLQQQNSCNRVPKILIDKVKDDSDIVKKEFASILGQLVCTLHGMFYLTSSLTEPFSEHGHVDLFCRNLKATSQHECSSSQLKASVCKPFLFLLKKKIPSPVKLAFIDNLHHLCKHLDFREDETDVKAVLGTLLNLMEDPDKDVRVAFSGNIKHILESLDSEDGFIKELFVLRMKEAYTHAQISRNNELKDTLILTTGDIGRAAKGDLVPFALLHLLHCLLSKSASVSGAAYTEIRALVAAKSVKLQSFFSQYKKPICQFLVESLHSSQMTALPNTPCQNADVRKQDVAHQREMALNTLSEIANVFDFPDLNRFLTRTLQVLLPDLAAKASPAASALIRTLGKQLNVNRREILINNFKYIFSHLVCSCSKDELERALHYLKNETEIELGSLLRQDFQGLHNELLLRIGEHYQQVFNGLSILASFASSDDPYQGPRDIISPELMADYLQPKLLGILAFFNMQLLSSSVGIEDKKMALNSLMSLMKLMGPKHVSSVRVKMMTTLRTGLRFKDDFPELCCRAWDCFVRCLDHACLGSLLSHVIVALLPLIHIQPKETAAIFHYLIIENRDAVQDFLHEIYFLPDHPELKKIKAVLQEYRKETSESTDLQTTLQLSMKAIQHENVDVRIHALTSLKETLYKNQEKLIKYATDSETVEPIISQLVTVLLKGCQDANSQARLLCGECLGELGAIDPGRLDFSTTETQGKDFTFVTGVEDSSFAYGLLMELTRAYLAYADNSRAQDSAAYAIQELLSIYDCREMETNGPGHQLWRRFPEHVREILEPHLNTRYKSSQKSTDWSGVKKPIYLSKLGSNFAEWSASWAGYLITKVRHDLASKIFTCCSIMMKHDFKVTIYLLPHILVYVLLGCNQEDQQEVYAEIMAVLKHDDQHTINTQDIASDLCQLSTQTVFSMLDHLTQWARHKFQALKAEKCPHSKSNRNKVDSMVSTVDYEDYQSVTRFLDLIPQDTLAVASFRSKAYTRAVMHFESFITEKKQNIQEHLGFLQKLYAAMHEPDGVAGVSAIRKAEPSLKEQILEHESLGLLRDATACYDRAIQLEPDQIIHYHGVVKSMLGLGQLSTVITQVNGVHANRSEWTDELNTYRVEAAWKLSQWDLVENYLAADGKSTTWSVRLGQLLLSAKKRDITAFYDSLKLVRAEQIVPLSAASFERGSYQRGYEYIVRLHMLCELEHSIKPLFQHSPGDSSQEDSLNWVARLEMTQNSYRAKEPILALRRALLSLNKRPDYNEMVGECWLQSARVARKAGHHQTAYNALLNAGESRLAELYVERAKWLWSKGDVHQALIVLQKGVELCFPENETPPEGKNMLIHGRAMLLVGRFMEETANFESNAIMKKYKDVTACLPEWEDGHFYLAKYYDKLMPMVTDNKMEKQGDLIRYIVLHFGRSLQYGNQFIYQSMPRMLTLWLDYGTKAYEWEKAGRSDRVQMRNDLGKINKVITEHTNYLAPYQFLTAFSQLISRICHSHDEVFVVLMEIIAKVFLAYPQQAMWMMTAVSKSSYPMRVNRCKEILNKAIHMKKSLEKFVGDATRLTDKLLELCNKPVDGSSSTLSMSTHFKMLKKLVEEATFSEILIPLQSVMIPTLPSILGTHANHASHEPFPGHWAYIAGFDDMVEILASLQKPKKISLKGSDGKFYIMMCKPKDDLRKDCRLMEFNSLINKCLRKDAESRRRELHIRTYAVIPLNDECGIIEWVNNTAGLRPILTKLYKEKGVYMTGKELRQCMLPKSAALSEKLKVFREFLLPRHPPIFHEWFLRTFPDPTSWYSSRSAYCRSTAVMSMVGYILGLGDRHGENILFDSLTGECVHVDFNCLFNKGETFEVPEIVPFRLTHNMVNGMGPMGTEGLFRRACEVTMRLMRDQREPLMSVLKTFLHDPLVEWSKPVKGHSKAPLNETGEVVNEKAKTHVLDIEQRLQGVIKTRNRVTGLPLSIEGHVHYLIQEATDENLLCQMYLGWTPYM
Chain of NTRK2 (human) (Q16620 whole entry, looked up): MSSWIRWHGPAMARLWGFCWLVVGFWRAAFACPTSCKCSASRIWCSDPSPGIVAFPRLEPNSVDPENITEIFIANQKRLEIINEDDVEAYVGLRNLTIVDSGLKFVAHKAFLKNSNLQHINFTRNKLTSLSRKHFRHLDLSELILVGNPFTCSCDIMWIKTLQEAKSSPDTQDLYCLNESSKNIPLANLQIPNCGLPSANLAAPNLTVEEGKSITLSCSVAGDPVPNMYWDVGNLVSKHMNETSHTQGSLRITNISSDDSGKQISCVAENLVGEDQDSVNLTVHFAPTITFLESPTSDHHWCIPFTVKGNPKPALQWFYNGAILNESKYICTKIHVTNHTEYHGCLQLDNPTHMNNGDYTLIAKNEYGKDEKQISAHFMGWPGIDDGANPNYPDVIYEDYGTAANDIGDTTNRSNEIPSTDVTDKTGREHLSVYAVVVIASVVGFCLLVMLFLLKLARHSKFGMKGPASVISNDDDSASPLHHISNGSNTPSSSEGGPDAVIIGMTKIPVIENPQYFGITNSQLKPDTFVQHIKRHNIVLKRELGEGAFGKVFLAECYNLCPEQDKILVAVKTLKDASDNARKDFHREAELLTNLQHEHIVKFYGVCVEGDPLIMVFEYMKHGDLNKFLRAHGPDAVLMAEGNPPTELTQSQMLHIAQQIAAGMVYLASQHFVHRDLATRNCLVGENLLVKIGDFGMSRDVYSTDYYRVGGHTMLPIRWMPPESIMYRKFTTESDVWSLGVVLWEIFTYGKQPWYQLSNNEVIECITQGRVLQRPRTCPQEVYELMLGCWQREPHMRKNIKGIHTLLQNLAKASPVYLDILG
Chain of TSSK1B (human) (Q9BXA7 whole entry, looked up): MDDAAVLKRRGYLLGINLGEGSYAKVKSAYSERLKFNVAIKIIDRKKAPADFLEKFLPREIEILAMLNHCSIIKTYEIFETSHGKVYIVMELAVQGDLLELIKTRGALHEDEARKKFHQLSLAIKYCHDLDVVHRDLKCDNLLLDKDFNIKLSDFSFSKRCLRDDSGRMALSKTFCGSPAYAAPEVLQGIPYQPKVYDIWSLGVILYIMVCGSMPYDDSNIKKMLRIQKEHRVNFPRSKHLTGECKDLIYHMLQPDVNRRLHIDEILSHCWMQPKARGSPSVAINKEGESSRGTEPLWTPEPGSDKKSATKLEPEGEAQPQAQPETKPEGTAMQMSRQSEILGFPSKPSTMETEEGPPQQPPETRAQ
Chain of GSK3B (human) (P49841 whole entry, looked up): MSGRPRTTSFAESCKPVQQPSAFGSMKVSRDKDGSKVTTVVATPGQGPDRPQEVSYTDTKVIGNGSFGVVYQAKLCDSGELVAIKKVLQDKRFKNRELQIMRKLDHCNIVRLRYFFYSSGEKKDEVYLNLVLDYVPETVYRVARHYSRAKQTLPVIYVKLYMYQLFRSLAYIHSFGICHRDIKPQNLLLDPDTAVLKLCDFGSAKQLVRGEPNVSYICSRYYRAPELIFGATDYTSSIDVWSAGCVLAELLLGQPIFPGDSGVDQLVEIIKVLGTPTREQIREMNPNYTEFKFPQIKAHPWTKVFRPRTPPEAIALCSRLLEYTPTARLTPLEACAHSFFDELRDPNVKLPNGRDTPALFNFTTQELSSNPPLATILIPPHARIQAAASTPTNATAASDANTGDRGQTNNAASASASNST
Chain of STK3 (human) (Q13188 whole entry, looked up): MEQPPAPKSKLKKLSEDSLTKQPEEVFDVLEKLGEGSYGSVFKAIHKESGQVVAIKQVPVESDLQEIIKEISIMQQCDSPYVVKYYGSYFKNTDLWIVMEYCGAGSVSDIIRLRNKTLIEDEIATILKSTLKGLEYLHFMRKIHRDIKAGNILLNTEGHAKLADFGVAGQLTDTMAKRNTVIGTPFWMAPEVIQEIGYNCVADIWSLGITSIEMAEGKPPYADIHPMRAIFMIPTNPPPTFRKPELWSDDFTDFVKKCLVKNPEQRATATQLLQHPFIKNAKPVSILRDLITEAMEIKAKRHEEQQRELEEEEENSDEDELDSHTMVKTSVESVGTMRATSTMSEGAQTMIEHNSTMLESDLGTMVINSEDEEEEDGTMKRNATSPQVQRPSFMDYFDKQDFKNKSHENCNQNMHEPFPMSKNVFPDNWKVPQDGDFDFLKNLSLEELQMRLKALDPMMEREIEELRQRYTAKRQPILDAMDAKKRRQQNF

Usually IC50 stands for the midpoint of a concentration-inhibition curve. As usually defined, the inhibition is the drop in the measured response relative to a control, in per cent. In the case of `Nc1cc(C(F)(F)F)c(-c2cc(N3CCOCC3)nc(N3CCOCC3)n2)cn1`, the IC50 on ATR (human) stood at 8.09 µM. The inhibition at CDK5 CDK5R1 p35 (human) was -1%; against EGFR (human) it was 3%; against RPS6KA1 KD1 KD2 (human), 5%; against GSK3B (human) it was 7%; against NTRK2 (human) it was 9%; against STK3 (human), 5%. For the same compound, the inhibition is -4% at TSSK1B (human); 3% against INSRR (human); 11% at PHKG1 (human); 2% against GRK4 (human); 27% at ROS1 (human).
